Results from ChEMBL document CHEMBL1134380, “Discovery and optimization of a novel series of thrombin receptor (par-1) antagonists: potent, selective peptide mimetics based on indole and indazole templates” (J Med Chem, 2001).

How the values were obtained:
[1] = target: T1, Proteinase-activated receptor 1 (Homo sapiens, UniProt P25116); test: Binding affinity against Protease-activated receptor (PAR-1) using [3H]-s-(p-F-Phe)-homoarginine-L-homoarginine-KY-NH2, 10 nM (Kd= 15 nM)
T1 sequence (P25116 whole entry): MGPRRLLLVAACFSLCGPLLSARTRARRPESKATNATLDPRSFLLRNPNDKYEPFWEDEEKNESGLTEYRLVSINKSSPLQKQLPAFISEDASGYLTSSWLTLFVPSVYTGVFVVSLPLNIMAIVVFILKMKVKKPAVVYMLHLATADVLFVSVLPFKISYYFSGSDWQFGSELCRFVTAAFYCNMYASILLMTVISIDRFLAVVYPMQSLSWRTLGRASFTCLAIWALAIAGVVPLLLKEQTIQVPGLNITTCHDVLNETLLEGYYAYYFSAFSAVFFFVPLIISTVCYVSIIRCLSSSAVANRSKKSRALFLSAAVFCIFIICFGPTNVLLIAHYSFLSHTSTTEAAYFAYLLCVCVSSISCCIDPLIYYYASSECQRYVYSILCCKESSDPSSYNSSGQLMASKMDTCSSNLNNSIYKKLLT

[2] = Calcium flux by HMVEC Calcium mobilization assay at 2.0 nM alpha thrombin.; format: functional; set-up: unit not given here
[3] = Calcium flux by RASMC Calcium mobilization assay at 2.0 nM alpha thrombin.; format: functional; set-up: unit not given here
[4] = Proliferation by RASMC proliferation assay at 0.8 nM alpha thrombin.; set-up: unit not given here
[5] = In vitro antagonist activity against U-46,619 induced gel-filtered Platelet (GFP) aggregation at 50 uM; NA=Inactive; format: functional
[6] = In vitro antagonist activity against SFLLRN-NH2 induced gel-filtered platelet (GFP) aggregation at 2 uM; format: functional
[7] = in vitro antagonist activity against U-46,619 induced gel-filtered Platelet (GFP) aggregation at 0.3 uM; format: functional
[8] = In vitro antagonist activity against U-46,619 induced gel-filtered Platelet (GFP) aggregation at 0.3 uM; format: functional
[9] = In vitro antagonist activity against collagen induced gel-filtered platelet (GFP) aggregation at 3 ug/mL
[10] = target: T1, Proteinase-activated receptor 1; test: Binding Affinity of ligand against Protease-activated Receptor (PAR-1) using [3H]-s-(p-F-Phe)-homoarginine-L-homoarginine-KY-NH2, 10 nM (Kd= 15 nM)

N=C(N)NCCC[C@H](NC(=O)[C@H](Cc1ccc(F)c(F)c1)NC(=O)Nc1ccc2c(CN3CCCC3)cn(Cc3c(Cl)cccc3Cl)c2c1)C(=O)NCc1ccccc1
IC50 [1]: 820 nM | Ca2+ flux [2]: 0.09 | Ca2+ flux [3]: 0.13 | Proliferation [4]: 2.4 | IC50 [5]: Not Active | IC50 [6]: 180 nM

COc1ccc(C[C@H](NC(=O)Nc2ccc3c(CN4CCCC4)cn(Cc4ccc(F)cc4)c3c2)C(=O)N[C@@H](CCCN=C(N)N)C(=O)NCc2ccccc2)cc1
IC50 [1]: 2200 nM | Ca2+ flux [2]: 0.54 | Ca2+ flux [3]: 7.8 | Proliferation [4]: > 30 | IC50 [5]: Not Active | IC50 [6]: 270 nM

N=C(N)NCCC[C@H](NC(=O)[C@H](Cc1ccc(F)c(F)c1)NC(=O)Nc1ccc2c(CN3CCCC3)cn(Cc3c(Cl)cccc3Cl)c2c1)C(=O)NCc1ccncc1
IC50 [1]: 40 nM | Ca2+ flux [2]: 0.17 | Ca2+ flux [3]: 0.21 | Proliferation [4]: 6.5 | IC50 [7]: 13300 nM | IC50 [6]: 360 nM

COc1ccc(C[C@H](NC(=O)Nc2ccc3c(CNC4CCCC4)cn(Cc4ccc(F)cc4)c3c2)C(=O)N[C@@H](CCCN=C(N)N)C(=O)NCc2ccccc2)cc1
IC50 [1]: 10700 nM | IC50 [8]: 49100 nM | IC50 [9]: 41400 nM | IC50 [6]: 2200 nM

COc1ccc(C[C@H](NC(=O)Nc2ccc3c(CN4CCCC4)cn(Cc4ccc(OC(F)(F)F)cc4)c3c2)C(=O)N[C@@H](CCCN=C(N)N)C(=O)NCc2ccccc2)cc1
IC50 [1]: 2400 nM | IC50 [8]: 25500 nM | IC50 [9]: 24200 nM | IC50 [6]: 3200 nM

COc1ccc(C[C@H](NC(=O)Nc2ccc3c(CN4CCCC4)cn(Cc4c(Cl)cccc4Cl)c3c2)C(=O)N[C@@H](CCCNC(=N)N)C(=O)NCc2ccccc2)cc1 [RWJ-54003]
IC50 [1]: 1300 nM | Ca2+ flux [2]: 0.33 | Ca2+ flux [3]: 0.93 | Proliferation [4]: 7.3 | IC50 [9]: 46300 nM | IC50 [5]: Not Active | IC50 [6]: 300 nM

N=C(N)NCCC[C@H](NC(=O)[C@H](Cc1ccccc1)NC(=O)Nc1ccc2c(CN3CCCC3)cn(Cc3ccc(F)cc3)c2c1)C(=O)NCc1ccccc1
IC50 [1]: 700 nM | IC50 [9]: 12700 nM | IC50 [6]: 300 nM

NCC[C@H](NC(=O)[C@H](Cc1ccc(F)c(F)c1)NC(=O)Nc1ccc2c(CN3CCCC3)nn(Cc3c(Cl)cccc3Cl)c2c1)C(=O)NCc1ccccc1 [RWJ-58259]
IC50 [10]: 150 nM | Ca2+ flux [3]: 0.07 | Proliferation [4]: 2.3 | IC50 [5]: Not Active | IC50 [6]: 110 nM
